{
  "source": "patent EP2839831A1",
  "about": "“Modulators of the unconventional secretory pathway for use in the treatment of Alexander disease” (Rheinische Friedrich-Wilhelms-Universität Bonn, priority 2013, dated 2015)",
  "test_system": "secretion of endogenous insulin-degrading enzyme (IDE)",
  "experiment": "Secretion assay: effect of lovastatin on IDE secretion in COS-7 cells transfected with GFAP-ΔEx4 (Western immunoblot, ratio of IDE in medium to IDE in lysates)",
  "format": "cell-based, monkey",
  "conditions": "Primates, 5 µM lovastatin for 15 hours, 36 hours post transfection, versus DMSO vehicle, read-out: increase of IDE secretion (ratio of IDE in the medium to IDE in the lysates) compared to GFAP-ΔEx4",
  "protocol": "COS-7 cells, a fibroblast-like cell line from monkey kidney tissue (ATCC, USA), were cultured in Dulbecco's Modified Eagle Medium (DMEM) (Life Technologies) containing 10% Fetal calf serum (FCS) (Life Technologies) and 1% Penicillin/Streptomycin (PS) (Life Technologies) (DMEM +/+) and splitted into new dishes (Coming). For all experiments cells were counted by using a Neubauer counting chamber. To estimate cell number (cells/ml), the average number from four big squares of the Neubauer chamber was multiplied by 10'000 and the cell suspension was diluted to the desired cell concentration. […]\nThe effect of statins on the secretion of IDE disturbed by Alexander disease-causing mutation in the 2A rod region of GFAP was determined by cell transfection and pharmacological treatment in COS-7 cells.\nCells were seeded in 6 well plates day before the transfection to a 50% confluence in DMEM medium supplemented with 10% FCS/1% PS. […] Proteins were separated by sodium dodecyl sulfate-polyacrylamide gel electrophoresis (SDS-PAGE), transferred to nitrocellulose membranes (Whatman), and detected by Western immunoblotting using enhanced chemiluminescence detection (ChemiDoc XRS, Bio-Rad). Signals were quantified with Quantity One Software (Bio-Rad).",
  "data": [
    {"smiles": "CC[C@H](C)C(=O)O[C@H]1C[C@@H](C)C=C2C=C[C@H](C)[C@H](CC[C@@H]3C[C@@H](O)CC(=O)O3)[C@H]21", "note": "[lovastatin, [(1S,3R,7S,8S,8aR)-8-[2-[(2R,4R)-4-hydroxy-6-oxooxan-2-yl]ethyl]-3,7-dimethyl-1,2,3,7,8,8a-hexahydronaphthalen-1-yl] (2S)-2-methylbutanoate]", "values": [
      {"measurement": "activation at 5 µM", "result": "~100", "unit": "%"}
    ]}
  ]
}
